# According to PMC8850458, “The AUTOTAC chemical biology platform for targeted protein degradation via the autophagy-lysosome system” (Nature Communications, 2022):
# “And” between values parts separate entries of the source, which are not always exact repeats. Equal values may be shown once. Read-outs that look alike come from different tables or passages of the source.
# Columns and labels:
# [1] = target: tauP301L (Homo sapiens, UniProt P10636, P618L); assay: WB degradation of tauP301L in SH-SY5Y-tauP301L cells; assay type: cell-based; details: densitometry, dosage degradation, SH-SY5Y-Tau-TiFC; for Tau normalized to GAPDH and control, AVG %: average of N=3
# Sequence of tauP301L (P10636 1-441 isoform P10636-8 P301L): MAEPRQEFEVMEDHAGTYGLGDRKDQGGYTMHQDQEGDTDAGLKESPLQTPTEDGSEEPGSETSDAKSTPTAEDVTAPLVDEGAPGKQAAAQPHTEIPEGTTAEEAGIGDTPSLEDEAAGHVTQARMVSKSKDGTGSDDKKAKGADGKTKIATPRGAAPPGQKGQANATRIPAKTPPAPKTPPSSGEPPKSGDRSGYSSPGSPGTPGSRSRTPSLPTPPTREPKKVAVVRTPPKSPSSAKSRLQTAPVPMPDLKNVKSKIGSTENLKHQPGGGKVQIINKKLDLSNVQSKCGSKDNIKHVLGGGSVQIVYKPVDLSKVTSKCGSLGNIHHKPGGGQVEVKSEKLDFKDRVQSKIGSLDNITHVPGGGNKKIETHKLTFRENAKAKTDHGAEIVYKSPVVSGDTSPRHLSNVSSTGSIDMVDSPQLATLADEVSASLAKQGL
# Method: (§1) Adherent cells were washed with phosphate-buffered saline (PBS) and cell pellets were lysed in SDS-based sample buffer (277.8 mM Tris-HCI, pH 6.8, 4.4% LDS, 44.4% (v/v) glycerol) containing beta-mercaptoethanol. Alternatively, cell pellets or protein supernatants were lysed in 5X Laemmli sample buffer. Whole-cell lysates were separated using SDS-PAGE, and transferred onto polyvinyllidene difluoride membranes at 100 V for 2 h at 4 °C. The membrane was incubated with a blocking solution consisting 4% skim milk in PBS solution for 30 min at room temperature and incubated with primary antibodies overnight, followed by incubation with host-specific HRP-conjugated secondary antibodies (1:10000 dilution). For signal detection, the membrane was developed with a mixture of ECL solution (Thermo Fisher Scientific) using X-ray films. Densitometry of developed bands was measured and analyzed with ImageJ (NIH, Bethesda).
# [2] = tested on: mutant HttQ103 and LC3; assay: ICC of HDQ103-GFP and LC3 co-localization in HeLa cells; assay type: cell-based; details: Fig. S7k, test substances given +HCQ; for HttQ103-GFP / LC3 colocalization, AVG of cells per 50 cells: control 1; for HttQ103-GFP / LC3 colocalization, percentage AVG: control 2
# Method: Cells were cultured on coverslips coated with poly-L-lysine (Sigma) to observe cellular localization of proteins. Using 4% paraformaldehyde in PBS (pH 7.4), the cells were fixed for 15 min at room temperature and washed three times for 5 min with PBS. After fixing, the cells were permeabilized with 0.5% Triton X-100 in PBS solution for 15 min and washed three times with PBS for 5 min. The cells were blocked containing 2% BSA in PBS solution for 1 h at room temperature. Subsequently, the cells were incubated with primary antibody diluted in 2% BSA/PBS solution overnight at 4 °C, followed by washing the cells three times for 10 min with PBS and incubated with Alexa Fluor-conjugated secondary antibody diluted in 2% BSA/PBS for 30 min at room temperature. Using a DAPI-containing mounting medium (Vector Laboratories), the coverslips were mounted on glass slides. Confocal images were taken by laser scanning confocal microscope 510 Meta (Zeiss) and analyzed by Zeiss LSM Image Browser (ver. 4.2.0.121). […] Quantification results are shown as mean ± S.D. or S.E.M. of three independent experiments […]
# Supplementary Fig. 7. AUTOTACs selectively degrade pathological mutant huntingtin. […]
# (j) ICC of HeLa cells […]
# expressing HDQ103-GFP with the indicated compounds (1 μM, 24 h) treated with HCQ (10 μM, 24 h). Scale bar, 10 μm. (k) Quantification of j (n=3 biologically independent experiments each counting 50 cells). P-values (from a two-sided unpaired t-test): *P < 0.0432. Data are presented as mean values ± SD where relevant. Source data are provided with this paper. […]
# [3] = tested on: p62 and LC3 punctate structures; assay: ICC of p62 and LC3 puncta formation and co-localization in HeLa cells; assay type: cell-based; details: 2.5 μM, 24 h
# Method: (§2) Cells were cultured on coverslips coated with poly-L-lysine (Sigma) to observe cellular localization of proteins. Using 4% paraformaldehyde in PBS (pH 7.4), the cells were fixed for 15 min at room temperature and washed three times for 5 min with PBS. After fixing, the cells were permeabilized with 0.5% Triton X-100 in PBS solution for 15 min and washed three times with PBS for 5 min. The cells were blocked containing 2% BSA in PBS solution for 1 h at room temperature. Subsequently, the cells were incubated with primary antibody diluted in 2% BSA/PBS solution overnight at 4 °C, followed by washing the cells three times for 10 min with PBS and incubated with Alexa Fluor-conjugated secondary antibody diluted in 2% BSA/PBS for 30 min at room temperature. Using a DAPI-containing mounting medium (Vector Laboratories), the coverslips were mounted on glass slides. Confocal images were taken by laser scanning confocal microscope 510 Meta (Zeiss) and analyzed by Zeiss LSM Image Browser (ver. 4.2.0.121). […] Quantification results are shown as mean ± S.D. or S.E.M. of three independent experiments
# [4] = tested on: p62-positive and WIPI2-positive punctate structures; assay: ICC of WIPI2-p62 co-localization in HeLa cells; assay type: cell-based; details: HeLa expressing WIPI2-GFP, 2.5 μM, 6 h
# Method: as §2
# Supplementary Fig. 2. Characterization of p62-ZZ ligands (a, c, e) 3-D modeling of p62 […]
# μM, 6 h). (m) Quantification of l for co-localization (n=3, 50 cells). Scale bar, 10 µm. (n) […]
# [5] = tested on: autophagic turnover of p62 and LC3; assay: Autophagic flux assay in HeLa cells with or without HCQ; assay type: cell-based; details: 2.5 μM, 24 h, with or without HCQ 10 µM 24 h
# Method: Fig. 1 Nt-Arg-mimicking p62-ZZ ligands activate p62-dependent selective macroautophagy. a A model illustrating the mode of action of autophagy-targeting ligands. b Chemical structures of autophagy-targeting ligands. c In vitro pulldown assay in HEK293T cells of the 12-mer V-BiP peptide or autophagy-targeting ligands. d In vitro p62 oligomerization assay in HEK293T cells incubated with the p62-ZZ ligands in (b). e ICC of HeLa cells treated with p62-ZZ ligands in (b) (2.5 μM, 24 h). Scale bar, 10 μm. f, g Quantification of (e) for puncta formation and co-localization, respectively (n = 3 biologically independent experiments each counting 50 cells). h A schematic/formulae for autophagy flux index. i Autophagic flux assay in HeLa cells treated with YOK-1304 or YTK-105 (2.5 μM, 24 h) in the presence or absence of HCQ (10 µM, 24 h). Data are presented as mean values ± SD where relevant. P-values (from a two-sided unpaired t test): ***P < 0.000956 (for p62 punctate formation), ***P < 0.000539 (for LC3 punctate formation), ***P < 0.000925 (for p62-LC3 co-localization). Source data are provided with this paper. TEXT PRINTED IN THE PICTURE: (i) YOK 1304: Normalized p62 A.F. index: 2.8; Normalized LC3 II/I A.F. index: 4.2 | (i) YTK 105: Normalized p62 A.F. index: 4.6; Normalized LC3 II/I A.F. index: 11.2
# as §1
# [6] = WST-based cell viability assay in ACHN cells; details: human, ACHN cells; for viability at 0.01 µM / viability at 0.1 µM / viability at 1 µM / viability at 10 µM / viability at 50 µM / viability at 100 µM: ACHN
# [7] = tested on: ACHN cells; assay: WST-based cell viability assay in ACHN cells; details: ACHN, duplicates
# [8] = tested on: ACHN cells; assay: Wound healing assay in ACHN cells; assay type: cell-based; design: wound area / wound area, Average: unit not given here; details: ACHN, 5 μM; for wound area: N=1, N=2
# Method: To analyze cell migration in two dimensions, U-87 MG or ACHN cells were plated to a monolayer. Cells were scratched with a sterile 10 μl pipette tip and the debris was removed using medium. Cells were treated with compounds and incubated for different time to monitor cell behavior. Photographs were obtained using a microscope at different time point.
# [9] = tested on: tauP301L inclusion bodies; assay: ICC of TauP301L-GFP autophagic targeting in HeLa cells; assay type: cell-based; details: Fig. 5k, HCQ alone
# Method: Fig. 5 Selective degradation of pathological aggregation-prone tau species by aggregate-binding AUTOTAC. a–c WB in SH-SY5Y-tauP301L cells treated with PBA-1105, PBA, or YTK-1105 at the indicated concentrations. d Densitometry of (a, b, and c) (n = 3 biologically independent experiments). e–g Same as (a–c) but with Anle138b-F105, Anle138b, or YTK-105. (h) Densitometry of (e, f, and g) (n = 3 biologically independent experiments). i WB in SH-SY5Y-tauP301L cells treated with PBA-1105 (0.1 μM) at the indicated time points. j ICC of HeLa cells expressing recombinant TauP301L-GFP and treated with the indicated compounds (1 μM, 24 h) and HCQ (10 μM, 24 h). Scale bar, 10 μm. k Quantification of (j) (n = 3 biologically independent experiments each counting 50 cells). l In vivo oligomerization assay in SH-SY5Y-tauP301L cells treated with okadaic acid (15 nM, 24 h) and the indicated compounds (0.1 μM, 24 h). m Triton X-100-fractionation assay in SH-SY5Y-tauP301L cells treated with a combination of HCQ (10 μM, 24 h), okadaic acid (15 nM, 24 h) or PBA-1105 (0.1 μM, 24 h). Data are presented as mean values ± SD where relevant. P-values (from a two-sided unpaired t test): **P < 0.00821. Source data are provided with this paper.
# as §2
# [10] = duplicates, read-out: WST assay viability relative to con = 100
# [11] = read-out: WST assay viability, AVG %
smiles,measurement,setting,value
"Brc1cccc(-c2cc(-c3ccc4c(c3)OCO4)[nH]n2)c1 [Anle138b, reference compound]","Tau normalized to GAPDH and control, AVG %",[1]; 1 nM,90.8031%
same,remaining activity at 0.001 µM,"[1]; 1 nM, read-out: (Tau normalized to GAPDH) normalized to control, percentage (individual replicates N=1, N=2, N=3)",89.3%
same,"Tau normalized to GAPDH and control, AVG %",[1]; 10 nM,101.352%
same,"Tau normalized to GAPDH and control, AVG %",[1]; 100 nM,84.5794%
same,"Tau normalized to GAPDH and control, AVG %",[1]; 1 uM,69.922%
same,"Tau normalized to GAPDH and control, AVG %",[1]; 10uM,83.6402%
same,"HttQ103-GFP / LC3 colocalization, AVG of cells per 50 cells",[2],21
same,"HttQ103-GFP / LC3 colocalization, percentage AVG",[2],42
CC(C)NCC(O)COc1ccc(OCc2ccccc2)c(OCCCc2ccccc2)c1 (stereo not drawn) [YOK-1304],"LC3 puncta formation, AVG of cells of 50",[3],38.6667
same,"LC3 puncta formation, percentage AVG",[3],77.3333%
same,"p62-LC3 colocalization, AVG of cells of 50",[3],37
same,"p62-LC3 colocalization, percentage AVG",[3],74%
same,"p62 puncta formation, AVG of cells of 50",[3],40.3333
same,"p62 puncta formation, percentage AVG",[3],80.6667%
same,"LC3 puncta formation, cells of 50 cells counted",[3]; single experiments,29 and 49 and 38
same,"p62-LC3 colocalization, cells of 50 cells counted",[3]; single experiments,36 and 39
same,"p62 puncta formation, cells of 50 cells counted",[3]; single experiments,46 and 36 and 39
same,"WIPI2-GFP-p62 colocalization, AVG of cells of 50",[4],30.6667
same,"WIPI2-GFP-p62 colocalization, percentage AVG",[4],61.3333%
same,"WIPI2-GFP-p62 colocalization, cells of 50 cells counted",[4]; single experiments,28 and 23 and 41
same,Normalized LC3 II/I A.F. index,[5],4.2
same,Normalized p62 A.F. index,[5],2.8
same,viability at 0.01 µM,[6]; [10],96.5%
same,viability at 0.01 µM,[6]; [11],96%
same,viability at 0.1 µM,[6]; [10],110%
same,viability at 0.1 µM,[6]; [11],106%
same,viability at 1 µM,[6]; [10],104%
same,viability at 1 µM,[6]; [11],102%
same,viability at 10 µM,[6]; [10],101%
same,viability at 10 µM,[6]; [11],102%
same,viability at 50 µM,[6]; [10],118%
same,viability at 50 µM,[6]; [11],113%
same,viability at 100 µM,[6]; [10],64.9%
same,viability at 100 µM,[6]; [11],67.1%
same,IC50,"[6]; WST-based viability assay, read-out: cytotoxicity IC50",> 20 µM
same,WST assay raw reading,[7]; 0.01uM,0.964 and 0.955
same,WST assay viability relative to con = 100,[7]; 0.01uM,95.4624
same,WST assay raw reading,[7]; 0.1uM,1.085 and 1.014
same,WST assay raw reading,[7]; 1uM,1.025 and 0.998
same,WST assay viability relative to con = 100,[7]; 1uM,100.423
same,WST assay raw reading,[7]; 10uM,1.004 and 1.024
same,WST assay viability relative to con = 100,[7]; 10uM,103.422
same,WST assay raw reading,[7]; 50uM,1.153 and 1.063
same,WST assay viability relative to con = 100,[7]; 50uM,107.922
same,WST assay raw reading,[7]; 100uM,0.69 and 0.729
same,WST assay viability relative to con = 100,[7]; 100uM,69.3905
same,"wound area, Average",[8]; 0h,2209762
same,"wound area, Average %",[8]; 0h,0%
same,wound area,[8]; 0h,2287288 and 2132236
same,"wound area, Average",[8]; 4h,1966032
same,"wound area, Average %",[8]; 4h,0%
same,wound area,[8]; 4h,2073039 and 1859025
same,"wound area, Average",[8]; 12h,1228896
same,"wound area, Average %",[8]; 12h,0%
same,wound area,[8]; 12h,1307559 and 1150234
same,"wound area, Average",[8]; 24h,122450
same,"wound area, Average %",[8]; 24h,0%
CCN(CCO)CCCC(C)Nc1ccnc2cc(Cl)ccc12 (stereo not drawn) [HCQ],"TauP301L-GFP / LC3 colocalization, AVG of cells per 50 cells",[9],11.3333
same,"TauP301L-GFP / LC3 colocalization, percentage AVG",[9],22.6667 percentage
same,"TauP301L-GFP / LC3 colocalization, cells counted per 50 cells (individual replicates)",[9]; count out of 50 cells,15 and 7 and 12
same,"HttQ103-GFP / LC3 colocalization, AVG of cells per 50 cells",[2],14.6667
same,"HttQ103-GFP / LC3 colocalization, percentage AVG",[2],29.3333
same,"HttQ103-GFP / LC3 colocalization, cells counted per 50 cells",[2]; single experiments,13 and 17 and 14
